Where “and” joins values, the source holds several entries; their conditions need not be identical. Equal entries are not always repeated. Entries after “also recorded” stand apart in the source; their conditions may differ.
Columns and labels:
[1] = system: C. elegans; assay: Confocal microscopy of mitochondria in body wall muscle (pmyo-3::mito::GFP reporter); details: in vivo
Procedure: Confocal Microscopy and Image Processing Worms were immobilized with 6 mM solution of tetramisole hydrochloride (Sigma, Buchs, Switzerland) in M9 and mounted on 6% agarose pads on glass slides. Images of worms were acquired using Zeiss LSM 700 Upright confocal microscope (Carl Zeiss AG, Oberkochen, Germany) under non-saturating exposure conditions. All the snapshots were taken from the same part of C. elegans: muscles from the upper part of the worm, excluding the regions of oesophagus and vulva. For each condition multiple worms were observed and imaged. Image processing was performed with the Fiji software. One of the critical issues during the imaging process was the position of the worm, as it influences the level of background. For the uniformity of the represented images, contrast and brightness were adjusted in order, to eliminate the undesirable background signal. Neither of these manipulations was affecting the mitochondrial shape. Tracing of the mitochondrial network contour was done by the use of Gaussian blur filter followed by the application of Laplacian operator.

[2] = system: C. elegans; assay: MitoSox staining of worms (mitochondrial superoxide); assay type: in vivo; details: day 3
Procedure: Briefly, a population of 100 worms was recovered in 1 ml of M9 buffer, washed three times to remove residual bacteria, and resuspended in 200 μl of 1:200 MitoSox stock solution (initial stock solution was dissolved at 1 mM in DMSO). After 20 minutes of treatment, worms were washed five times in 1 ml of M9 buffer to eliminate the MitoSox reagent, and then transferred in a black-walled 96-well plate for reading. Fluorescence produced by the Mitosox reaction was measured as described before.

[3] = system: C. elegans; assay: Quantitative RT-PCR in worms; assay type: in vivo
Procedure: mRNA and mtDNA Analysis. Total RNA was prepared using TRIzol (Invitrogen) according to the manufacturer's instructions. RNA was treated with DNase, and 2 μg of RNA was used for reverse transcription (RT). cDNA was purified on QIAquick PCR cleanup columns (Qiagen, Valencia, Calif., USA). 50× diluted cDNA was used for RT-quantitative PCR (RT-VCR) VCR) reactions (Bai et al., 2007). The RT-qPCR reactions were performed using the Light-Cycler system (Roche Applied Science) and a qPCR Supermix (Qiagen) with the primers for mice summarized in Table 1 and 4, and with the primers for worms summarized on Table 7. mtDNA quantification was performed as described (Lagouge et al., 2006) with the primers indicated in Table 2 and 5.

[4] = system: C. elegans; assay: Worm lifespan analysis; assay type: in vivo; details: for variation compared to control (%): vs N2 + water
Procedure: Worm Lifespan Analysis Lifespan tests were performed as described in Mouchiroud et al (L. Mouchiroud et al., Pyruvate imbalance mediates metabolic reprogramming and mimics lifespan extension by dietary restriction in Caenorhabditis elegans. Aging Cell 10, 39 (2011)). Briefly, 60-100 animals were used per conditions and scored every other day. All lifespan experiments were performed at 20° C. […] Animals were exposed to compounds during the full life from eggs until death. To ensure a permanent exposure to the compound, plates were changed twice a week. All the compounds used in this study were dissolved in a water stock solution.

[5] = system: C. elegans; assay: Worm fluorescence analysis (endogenous gut fluorescence/lipofuscin, sod-3::GFP); details: in vivo
Procedure: Fluorescence Analysis Quantification of GFP expression and endogenous gut fluorescence were carried out according to the protocol as described in Yamamoto et al. (Yamamoto et al., NCoR1 is a conserved physiological modulator of muscle mass and oxidative function. Cell 147, 827 (2011)). Briefly, GFP was monitored in day 1 or day 3 adults. Fluorimetric assays were performed using a Victor X4 multilabel plate reader (Perkin-Elmer Life Science). Eighty worms were picked at random (20 worms per well of a black-walled 96-well plate) and each well was read four times and averaged. Each experiment was repeated at least three times. Endogenous gut fluorescence was monitored at day 1, day 4 and day 8 by following the same protocol as described before.

[6] = system: C. elegans; assay: Worm respiration assay (Seahorse XF24); assay type: in vivo; details: day 3 adult worms
Procedure: Worm Respiration Assays Oxygen consumption was measured using the Seahorse XF24 equipment (Seahorse Bioscience Inc., North Billerica, Mass.) as described in Yamamoto et al. Typically, 200 animals per conditions were recovered from NGM plates with M9 medium, washed three times in 2 mLM9 to eliminate residual bacteria, and resuspended in 500 μL M9 medium. Worms were transferred in 24-well standard Seahorse plates (#100777-004) (50 worms per well) and oxygen consumption was measured 6 times. Respiration rates were normalized to the number of worms in each individual well. NAD measurement by HPLC For NAD+ quantification, approximately 1000 worms were collected in M9 buffer, washed five times to remove residual bacteria and flash-frozen in liquid nitrogen and stored at −80° C. until analysis. Extraction was started by adding 250 μl of 1.6M perchloric acid on frozen samples, followed by extensive homogenization in a Qiagen tissuelyser, and centrifugation at 20.000 g for 15 min. The supernatant was recovered and neutralized with a 3M potassium carbonate solution. After centrifugation, 100 μl of supernatant was filtered and used for NAD measurement using an HPLC system (Agilent) with a Supelco LC-18-T column (Sigma), as described in Yoshino et al. (Yoshino, K. F. Mills, M. J. Yoon, S. Imai, Nicotinamide Mononucleotide, a Key NAD(+) Intermediate, Treats the Pathophysiology of Diet- and Age-Induced Diabetes in Mice. Cell Metab 14, 528 (2011)).

O=C(c1cc(Cc2n[nH]c(=O)c3ccccc23)ccc1F)N1CCN(C(=O)C2CC2)CC1 [AZD2281]
mitochondrial content in body wall muscle [1]: more dense mitochondrial network
ROS production (mitoSOX) [2]: ROS production was decreased
expression of genes of mitochondrial oxidative metabolism (cts-1, cox-4) ([3]; day 3 of adulthood): increased expression of citrate synthase (cts-1) and cytochrome c oxidase subunit 4 (cox-4); also recorded: increased expression of genes involved in mitochondrial oxidative metabolism
daf-16 expression ([3]; in vivo): did not change expression of daf-16
sod-3 expression ([3]; in vivo): marked induction
lifespan extension ([4]; 100 nM (FIG. 34B)): 22.9%
mean lifespan ± SE ([4]; N2, 100 nM, listed as AZD): 22.8 ± 0.9 days and 24.7 ± 0.669 days and 26.5 ± 0.77 days and 24.5 ± 0.94 days and 24.7 ± 0.55 days
mean lifespan ± SE ([4]; N2, 500 nM): 22.2 ± 1.15 days
variation compared to control (%) ([4]; N2, 500 nM): +14.4%
mean lifespan ± SE ([4]; N2, 1000 nM): 21.2 ± 0.96 days
variation compared to control (%) ([4]; N2, 1000 nM): +9.2%
lifespan in daf-16 mutant worms ([4]; daf-16(mu86) mutant worms): failed to increase lifespan; also recorded: fails to extend lifespan
mean lifespan ± SE ([4]; daf-16(mu86), 100 nM): 18.2 ± 0.76 days
variation compared to control (%) ([4]; daf-16(mu86), 100 nM): −16.1%
mean lifespan ± SE ([4]; pme-1(ok988), 100 nM): 26.1 ± 0.78 days
variation compared to control (%) ([4]; pme-1(ok988), 100 nM): +31.2%
lifespan of the pme-1 mutant ([4]; pme-1 mutant worms): not further extended; also recorded: pme-1-dependent manner
lifespan in sir-2.1(ok434) mutant / sir-2.1 dependence ([4]; sir-2.1(ok434) mutant worms): lost the AZD2281-induced longevity; also recorded: does not extend lifespan
mean lifespan ± SE ([4]; sir-2.1(ok434), 100 nM): 21.9 ± 0.528 days
variation compared to control (%) ([4]; sir-2.1(ok434), 100 nM): +6.7%
accumulation of the aging pigment lipofuscin [5]: reduced lipofuscin accumulation; also recorded: decreased the accumulation of the aging pigment lipofuscin
sod-3::GFP [5]: increase in sod-3::GFP
oxygen consumption (respiration) [6]: robustly increased respiration; also recorded: Oxygen consumption was increased

Source: patent publication US10709724B2, “Methods of treating mitochondrial dysfunction” (Ecole Polytechnique Federale de Lausanne (EPFL), priority 2011, dated 2020)
